Tests used:
Assay in all cases: fitness (endpoint OD595 vs no drug) (fraction); higher = more growth
S. aureus DSM 20231 = test system: S. aureus DSM 20231
Summary of the method: (§1)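 Background-subtracted growth curves were the basis for fitness, taken as the optical density at entry into stationary phase over the robust mean of no-drug control wells. A cap of 1 was applied. The curves came from OD595 readings every 30 min for 14 h at 37 °C, in 384-well plates seeded at OD595 0.01 with 30 µl, or 55 µl for S. pneumoniae.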

B. subtilis 168 = test system: B. subtilis 168
Summary of the method: as §1

S. aureus Newman = test system: S. aureus Newman
Summary of the method: as §1

N[C@@H]1CONC1=O [Cycloserine D] + CCC[C@@H]1C[C@@H](C(=O)N[C@@H]([C@H]2O[C@H](SC)[C@H](O)[C@@H](O)[C@H]2O)[C@@H](C)O)N(C)C1 [Lincomycin]
fitness
Settings | first compound 0.125 µg/mL | first compound 0.25 µg/mL | first compound 0.375 µg/mL | first compound 0.5 µg/mL | first compound 0.75 µg/mL | first compound 1.5 µg/mL
B. subtilis 168, partner 0.1 µg/mL | 0.87 | 0.873 | – | 0.911 | – | –
B. subtilis 168, partner 0.2 µg/mL | 0.861 | 0.877 | – | 0.932 | – | –
B. subtilis 168, partner 0.4 µg/mL | 0.868 | 0.906 | – | 0.964 | – | –
S. aureus DSM 20231, partner 0.1 µg/mL | – | – | 0.936 | – | 0.921 | 0.915
S. aureus DSM 20231, partner 0.4 µg/mL | – | – | 0.278 | – | 0.271 | 0.247

fitness, B. subtilis 168, one replicate
Settings | first compound 0.125 µg/mL | first compound 0.25 µg/mL | first compound 0.5 µg/mL
partner 0.8 µg/mL | 0.923 | 0.939 | 0.905
partner 1.6 µg/mL | 0.88 | 0.813 | 0.862

O=C(N[C@H](CO)[C@H](O)c1ccc([N+](=O)[O-])cc1)C(Cl)Cl [Chloramphenicol] + CO[C@@]12[C@H](COC(N)=O)C3=C(C(=O)C(C)=C(N)C3=O)N1C[C@@H]1N[C@@H]12 [Mitomycin C]
fitness
Settings | first compound 0.75 µg/mL | first compound 1.5 µg/mL | first compound 3 µg/mL
S. aureus DSM 20231, partner 0.0156 µg/mL | 0.598 | 0.431 | 0.0667
S. aureus DSM 20231, partner 0.0312 µg/mL | 0.572 | 0.367 | 0.0823
S. aureus DSM 20231, partner 0.0625 µg/mL | 0.453 | 0.245 | 0.0494
S. aureus Newman, partner 0.0156 µg/mL | 0.577 | 0.442 | 0.259
S. aureus Newman, partner 0.0312 µg/mL | 0.537 | 0.363 | 0.144
S. aureus Newman, partner 0.0625 µg/mL | 0.399 | 0.3 | 0.0938

O=C(N[C@H](CO)[C@H](O)c1ccc([N+](=O)[O-])cc1)C(Cl)Cl [Chloramphenicol] + CN(C)[C@@H]1C(O)=C(C(N)=O)C(=O)[C@@]2(O)C(O)=C3C(=O)c4c(O)ccc(Cl)c4[C@@](C)(O)[C@H]3C[C@@H]12 [Chlortetracycline]
S. aureus DSM 20231, partner 0.006 µg/mL, one replicate
Settings | fitness
first compound 0.75 µg/mL | 0.62
first compound 1.5 µg/mL | 0.558

fitness, S. aureus DSM 20231
Settings | first compound 0.75 µg/mL | first compound 1.5 µg/mL | first compound 3 µg/mL
partner 0.012 µg/mL | 0.476 | – | 0.0949
partner 0.024 µg/mL | 0.288 | – | 0.0799
partner 0.048 µg/mL | – | 0.127 | 0.0661

N[C@@H]1CONC1=O [Cycloserine D] + CC(C1CCC(C(O1)OC2C(CC(C(C2O)OC3C(C(C(CO3)(C)O)NC)O)N)N)N)NC [Gentamicin]
main component drawn
Settings | fitness
B. subtilis 168, first compound 0.125 µg/mL, partner 0.0625 µg/mL | 0.964
B. subtilis 168, first compound 0.125 µg/mL, partner 0.25 µg/mL | 0.102
B. subtilis 168, first compound 0.25 µg/mL, partner 0.0625 µg/mL | 0.943
B. subtilis 168, first compound 0.25 µg/mL, partner 0.25 µg/mL | 0.0775
B. subtilis 168, first compound 0.5 µg/mL, partner 0.0625 µg/mL | 0.914
B. subtilis 168, first compound 0.5 µg/mL, partner 0.25 µg/mL | 0.0653
S. aureus Newman, first compound 0.375 µg/mL, partner 0.375 µg/mL | 0.986
S. aureus Newman, first compound 0.375 µg/mL, partner 0.5 µg/mL | 0.923
S. aureus Newman, first compound 0.375 µg/mL, partner 0.75 µg/mL | 0.974
S. aureus Newman, first compound 0.375 µg/mL, partner 1 µg/mL | ≥ 1
S. aureus Newman, first compound 0.375 µg/mL, partner 1.5 µg/mL | 0.955
S. aureus Newman, first compound 0.375 µg/mL, partner 2 µg/mL | ≥ 1
S. aureus Newman, first compound 0.75 µg/mL, partner 0.375 µg/mL | ≥ 1
S. aureus Newman, first compound 0.75 µg/mL, partner 0.5 µg/mL | 0.921
S. aureus Newman, first compound 0.75 µg/mL, partner 0.75 µg/mL | ≥ 1
S. aureus Newman, first compound 0.75 µg/mL, partner 1 µg/mL | ≥ 1
S. aureus Newman, first compound 0.75 µg/mL, partner 2 µg/mL | ≥ 1
S. aureus Newman, first compound 1.5 µg/mL, partner 0.375 µg/mL | 1
S. aureus Newman, first compound 1.5 µg/mL, partner 0.5 µg/mL | 0.952
S. aureus Newman, first compound 1.5 µg/mL, partner 0.75 µg/mL | ≥ 1
S. aureus Newman, first compound 1.5 µg/mL, partner 1 µg/mL | ≥ 1
S. aureus Newman, first compound 1.5 µg/mL, partner 2 µg/mL | ≥ 1

From the supplement of paper PMC10627819
